Measured values: US6586365B2, “Method for reducing pest damage to corn by treating transgenic corn seeds with clothianidin pesticide” (priority 2000, dated 2003)
Like-named read-outs stand apart in the source and are kept apart here.

System: western and northern corn root worm
Type: in vivo, corn rootworm
Conditions: for PERCENT OF CONTROL (3-6 damage level) / PERCENT OF CONTROL (4-6 damage level) / PERCENT OF CONTROL (5-6 damage level) / PERCENT PLANTS HAVING 3-6 DAMAGE LEVEL / PERCENT PLANTS HAVING 4-6 DAMAGE LEVEL / PERCENT PLANTS HAVING 5-6 DAMAGE LEVEL: Iowa 1-6 Scale; for Corn root worm damage (Iowa 1-6 scale), means across locations / Corn root worm damage in each Iowa class (Iowa 1-6 scale): class 1 / Corn root worm damage in each Iowa class (Iowa 1-6 scale): class 2 / Corn root worm damage in each Iowa class (Iowa 1-6 scale): class 3 / Corn root worm damage in each Iowa class (Iowa 1-6 scale): class 4 / Corn root worm damage in each Iowa class (Iowa 1-6 scale): class 5 / Corn root worm damage in each Iowa class (Iowa 1-6 scale): class 6: stage VT-R1
Description: Corn seeds of the same hybrid species, with and without the transgenic event, were treated with clothianidin pesticide as follows. A seed treatment formulation was prepared by mixing a measured amount of clothianidin in water as a carrier and applying the formulation for one minute at room temperature to a measured weight of corn seed in a rotostatic seed treater. The respective weights of the pesticide preparation and the corn seed were calculated to provide the desired rate of treatment of pesticide on the seed. The pesticide was mixed into sufficient water to permit efficient distribution of the formulation to all of the seeds in the batch while minimizing loss of treatment formulation due to lack of uptake of the formulation by the seeds. Treated seeds were allowed to sit uncapped for at least four hours before planting.
A field trial was run in accordance with pertinent protocols and in conformance with USDA notification requirements. The purpose of the trial was to determine the efficacy of transgenic event Cry3Bb.11231 in corn seed in combination with corn rootworm seed treatments using clothianidin.
For each growing site that was selected, the plot design included the following:
The following seed treatment combinations were used for each growing area:
All seed treatments with pesticides were carried out as described in Example 1.
For seeds having treatments numbered 3 though 7, the pesticides were applied by the methods described in Example 1. In seed treatment number 8, commercially available Force® 3G was applied to the soil in a 5″ band at the time of sowing. The levels of application are as shown and are within the ranges recommended for standard commercial practice.
Corn seeds to be tested were planted and grown at five different locations across two Midwestern states in the United States corn belt according to the protocol described above.
The determination of damage by corn rootworm was made according to the following protocol. At stage VT-R1, an evaluation of corn rootworm damage was carried out by methods that are well known in the industry, and damage by corn rootworm was reported according to the Iowa 1-6 rating system. In that system, the root systems of 10 corn plants per plot are recovered and scored using the 1-6 rating scale, where: 1=no injury or only a few minor feeding scars, 2=feeding injury evident, but no roots eaten back to 1 ½ inches of the plant, 3=at least one root eaten off to within 1 ½ inches of the plant, but never an entire node of roots destroyed, 4=one node of roots eaten back to within 1 ½ inches of the plant, 5=two nodes (circles) of roots eaten back to within 1 ½ inches of the plant, 6=three nodes (circles) of roots eaten back to within 1 ½ inches of the plant.
The combinations of clothianidin seed treatment with corn seed having a Cry3Bb.11231 transgenic event were tested for possible synergy at three levels of rootworm damage. In the first test, shown in Table 2(a), the percentage of test plants having damage levels of from 3 to 6, on the Iowa 1-6 Scale, were determined for the control and for seeds treated with the pesticide at two levels, and for seeds having the transgenic event, alone and in combination. The following formula was then used to calculate a “synergy threshold”:
(% of control Cry3Bb.11231)*(% of control clothianidin treatment)/100.
This threshold was compared against the percent of control for the treatment combinations (i.e., Cry3Bb.11231 with clothianidin @ 100 gm/100 kg and Cry3Bb.11231 with clothianidin @ 300 gm/100 kg). If the treatment combination percent of control was below the threshold, then it was concluded that there was synergy.

[1] = clothianidin seed treatment @ 100 g/100 kg seed
[2] = clothianidin seed treatment @ 300 g/100 kg seed
[3] = clothianidin seed treatment @ 400 g/100 kg seed

SMILES: CN/C(=N\[N+](=O)[O-])NCc1cnc(Cl)s1 [Clothianidin, N-[(2-chloro-5-thiazoyl)methyl]-N′-methyl-N″-nitro,[C(E)]-(9Cl)-guanidine]
- PERCENT OF CONTROL (3-6 damage level) (clothianidin @ 100 gm/100 kg): 96.6%
- PERCENT OF CONTROL (4-6 damage level) (clothianidin @ 100 gm/100 kg): 86.9%
- PERCENT OF CONTROL (5-6 damage level) (clothianidin @ 100 gm/100 kg): 39.4%
- PERCENT PLANTS HAVING 3-6 DAMAGE LEVEL (clothianidin @ 100 gm/100 kg): 96.6%
- PERCENT PLANTS HAVING 4-6 DAMAGE LEVEL (clothianidin @ 100 gm/100 kg): 71.2%
- PERCENT PLANTS HAVING 5-6 DAMAGE LEVEL (clothianidin @ 100 gm/100 kg): 15.8%
- PERCENT OF CONTROL (3-6 damage level) (clothianidin @ 300 gm/100 kg): 91.5%
- PERCENT OF CONTROL (4-6 damage level) (clothianidin @ 300 gm/100 kg): 50.65%
- PERCENT OF CONTROL (5-6 damage level) (clothianidin @ 300 gm/100 kg): 23.9%
- PERCENT PLANTS HAVING 3-6 DAMAGE LEVEL (clothianidin @ 300 gm/100 kg): 91.5%
- PERCENT PLANTS HAVING 4-6 DAMAGE LEVEL (clothianidin @ 300 gm/100 kg): 41.5%
- PERCENT PLANTS HAVING 5-6 DAMAGE LEVEL (clothianidin @ 300 gm/100 kg): 9.6%
- Corn root worm damage (Iowa 1-6 scale), means across locations [1]: 3.9
- Corn root worm damage in each Iowa class (Iowa 1-6 scale): class 1 [1]: 0
- Corn root worm damage in each Iowa class (Iowa 1-6 scale): class 2 [1]: 6
- Corn root worm damage in each Iowa class (Iowa 1-6 scale): class 3 [1]: 45
- Corn root worm damage in each Iowa class (Iowa 1-6 scale): class 4 [1]: 98
- Corn root worm damage in each Iowa class (Iowa 1-6 scale): class 5 [1]: 23
- Corn root worm damage in each Iowa class (Iowa 1-6 scale): class 6 [1]: 5
- Corn root worm damage (Iowa 1-6 scale), means across locations [2]: 3.4
- Corn root worm damage in each Iowa class (Iowa 1-6 scale): class 1 [2]: 0
- Corn root worm damage in each Iowa class (Iowa 1-6 scale): class 2 [2]: 16
- Corn root worm damage in each Iowa class (Iowa 1-6 scale): class 3 [2]: 94
- Corn root worm damage in each Iowa class (Iowa 1-6 scale): class 4 [2]: 60
- Corn root worm damage in each Iowa class (Iowa 1-6 scale): class 5 [2]: 16
- Corn root worm damage in each Iowa class (Iowa 1-6 scale): class 6 [2]: 2
- Corn root worm damage (Iowa 1-6 scale), means across locations [3]: 3.0
- Corn root worm damage in each Iowa class (Iowa 1-6 scale): class 1 [3]: 1
- Corn root worm damage in each Iowa class (Iowa 1-6 scale): class 2 [3]: 34
- Corn root worm damage in each Iowa class (Iowa 1-6 scale): class 3 [3]: 113
- Corn root worm damage in each Iowa class (Iowa 1-6 scale): class 4 [3]: 37
- Corn root worm damage in each Iowa class (Iowa 1-6 scale): class 5 [3]: 1
- Corn root worm damage in each Iowa class (Iowa 1-6 scale): class 6 [3]: 0
- effectiveness against corn rootworm damage (in words) (seed treatment alone, all levels tested (100, 300, 400 gm/100 kg)): effective against corn rootworm damage at all levels tested
